Measurements: PubChem BioAssay AID248 (DTP/NCI, 2004)
Several values for one entry are separate records, joined by “and”; a condition that tells them apart may be missing. Equal entries are not always repeated. Toxic doses and inconclusive results are not listed. Rule as the data show it: active = T/C of 150% or more; inactive = T/C below 125%.

Tested on: L1210 leukemia ip in BDF1 mice, survival T/C
Assay: NCI In Vivo Anticancer Drug Screen. Data for tumor model L1210 Leukemia (intraperitoneal) in B6D2F1 (BDF1) mice
Settings: endpoint: mean survival time, higher = longer survival
Method in brief: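 Mice bearing the transplanted tumor received compound or vehicle. Survival of the treated group was divided by that of the vehicle-treated control group to give the ratio.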

[1] = dose: 100.0 mg/kg/injection, schedule: Q01DX001 (ip), vehicle: Klucel (hydroxypropylcellulose) (HPC)
[2] = dose: 100.0 mg/kg/injection, schedule: Q04DX003 (ip), vehicle: Klucel (hydroxypropylcellulose) (HPC)
[3] = dose: 200.0 mg/kg/injection, schedule: Q01DX001 (ip), vehicle: Klucel (hydroxypropylcellulose) (HPC)
[4] = dose: 200.0 mg/kg/injection, schedule: Q04DX003 (ip), vehicle: Klucel (hydroxypropylcellulose) (HPC)
[5] = dose: 400.0 mg/kg/injection, schedule: Q01DX001 (ip), vehicle: Klucel (hydroxypropylcellulose) (HPC)
[6] = dose: 400.0 mg/kg/injection, schedule: Q04DX003 (ip), vehicle: Klucel (hydroxypropylcellulose) (HPC)
[7] = dose: 100.0 mg/kg/injection, schedule: Q01DX001 (ip), vehicle: carboxymethylcellulose (CMC)
[8] = dose: 100.0 mg/kg/injection, schedule: Q01DX009 (ip), vehicle: saline with Tween-80
[9] = dose: 100.0 mg/kg/injection, schedule: Q01DX001 (ip), vehicle: saline
[10] = dose: 200.0 mg/kg/injection, schedule: Q01DX001 (ip), vehicle: saline
[11] = dose: 100.0 mg/kg/injection, schedule: Q01DX009 (ip), vehicle: Klucel (hydroxypropylcellulose) (HPC)
[12] = dose: 200.0 mg/kg/injection, schedule: Q01DX009 (ip), vehicle: Klucel (hydroxypropylcellulose) (HPC)

Measured: T/C

Cc1c(O)ccc2c1OCC2=O
inactive: [1] 91 % of control | [2] 104 % of control | [3] 94 % of control | [4] 98 % of control | [5] 98 % of control | [6] 93 % of control

CCCCCCCCCCCCCCNC1=C(C)C(=O)C(NCCCCCCCCCCCCCC)=C(C)C1=O
inactive: [7] 98 % of control | dose: 200.0 mg/kg/injection, schedule: Q01DX001 (ip), vehicle: carboxymethylcellulose (CMC) 93 % of control | dose: 400.0 mg/kg/injection, schedule: Q01DX001 (ip), vehicle: carboxymethylcellulose (CMC) 89 % of control

COc1ccc2[nH]c(-c3ccccc3)cc2c1
inactive: dose: 25.0 mg/kg/injection, schedule: Q01DX009 (ip), vehicle: saline with Tween-80 100 % of control | dose: 50.0 mg/kg/injection, schedule: Q01DX009 (ip), vehicle: saline with Tween-80 108 % of control | [8] 101 % of control

CN1CSC(=S)N(C)C1
inactive: dose: 25.0 mg/kg/injection, schedule: Q04DX003 (ip), vehicle: Klucel (hydroxypropylcellulose) (HPC) 95 % of control | dose: 50.0 mg/kg/injection, schedule: Q04DX003 (ip), vehicle: Klucel (hydroxypropylcellulose) (HPC) 95 % of control | [2] 95 % of control and 101 % of control

Nc1ncnc2c1nnn2C1CC2COP(=O)(O)OC2C1O (configuration not stated)
inactive: dose: 44.0 mg/kg/injection, schedule: Q01DX007 (ip), vehicle: saline with Tween-80 103 % of control | dose: 67.0 mg/kg/injection, schedule: Q01DX007 (ip), vehicle: saline with Tween-80 114 % of control | dose: 100.0 mg/kg/injection, schedule: Q01DX007 (ip), vehicle: saline with Tween-80 101 % of control

C=C(Cl)CSc1ccccc1
inactive: [9] 103 % of control | [10] 103 % of control | dose: 400.0 mg/kg/injection, schedule: Q01DX001 (ip), vehicle: saline 105 % of control

Cc1ccc(S(=O)(=O)N/N=C/N(C)C)cc1
inactive: [11] 91 % of control | [2] 102 % of control | [12] 98 % of control | [4] 103 % of control | dose: 400.0 mg/kg/injection, schedule: Q01DX009 (ip), vehicle: Klucel (hydroxypropylcellulose) (HPC) 96 % of control | [6] 97 % of control

COc1ccc2c3c1OC1C=CC(O)C4C(C2)N(C)CCC314 (configuration not stated)
inactive: [9] 98 % of control | [10] 89 % of control

C=CC(C)(CC/C=C(\C)CCC=C(C)C)OC(=O)NC(=O)C(Cl)(Cl)Cl (configuration not stated)
inactive: dose: 50.0 mg/kg/injection, schedule: Q01DX009 (ip), vehicle: Klucel (hydroxypropylcellulose) (HPC) 103 % of control | [1] 111 % of control | [11] 100 % of control | [3] 101 % of control | [12] 97 % of control | [5] 105 % of control

CC1(C)C2CC=C(CCO)C1C2 (configuration not stated)
inactive: [9] 98 % of control | dose: 100.0 mg/kg/injection, schedule: Q04DX002 (ip), vehicle: saline with Tween-80 98 % of control | [10] 93 % of control | dose: 200.0 mg/kg/injection, schedule: Q04DX002 (ip), vehicle: saline with Tween-80 110 % of control | dose: 400.0 mg/kg/injection, schedule: Q04DX002 (ip), vehicle: saline with Tween-80 93 % of control

N=c1ccccn1CC(O)COc1ccccc1 (configuration not stated)
inactive: [7] 92 % of control

O=C1C=CC(=O)N1CN1CCOCC1
inactive: dose: 3.12 mg/kg/injection, schedule: Q01DX009 (ip), vehicle: saline with Tween-80 96 % of control | dose: 6.25 mg/kg/injection, schedule: Q01DX009 (ip), vehicle: saline with Tween-80 96 % of control | dose: 12.5 mg/kg/injection, schedule: Q01DX009 (ip), vehicle: saline with Tween-80 93 % of control

Cc1cc(OC(=O)Nc2cccc(Cl)c2)ccc1Cl
inactive: [8] 91 % of control | dose: 200.0 mg/kg/injection, schedule: Q01DX009 (ip), vehicle: saline with Tween-80 93 % of control | dose: 400.0 mg/kg/injection, schedule: Q01DX009 (ip), vehicle: saline with Tween-80 95 % of control
